Experimental findings from paper PMC6230509 (Neuropharmacology, 2018) are described below.

Test [1] concerns the target T1, 5-HT2C (Homo sapiens, UniProt P28335).
T1 sequence (P28335 33-458): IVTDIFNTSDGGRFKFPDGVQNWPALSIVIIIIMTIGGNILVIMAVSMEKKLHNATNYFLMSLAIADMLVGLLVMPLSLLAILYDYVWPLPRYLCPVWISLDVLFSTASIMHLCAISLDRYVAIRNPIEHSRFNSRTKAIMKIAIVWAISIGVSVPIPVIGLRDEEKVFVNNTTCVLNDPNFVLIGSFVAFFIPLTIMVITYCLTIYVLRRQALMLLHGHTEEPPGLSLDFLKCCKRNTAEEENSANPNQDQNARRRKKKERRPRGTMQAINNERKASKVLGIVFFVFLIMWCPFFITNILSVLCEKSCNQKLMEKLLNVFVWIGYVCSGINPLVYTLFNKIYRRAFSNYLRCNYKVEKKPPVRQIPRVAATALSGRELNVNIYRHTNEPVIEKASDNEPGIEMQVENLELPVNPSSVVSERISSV
As to the kind of experiment: NIMH PDSP radioligand competition binding, 5-HT2C.

The target of test [2] is H3 (Cavia porcellus, UniProt Q9JI35). Description: NIMH PDSP radioligand competition binding, H3. On the set-up: species or system Guinea pig.
Test [3] concerns the target κ-opioid receptor (KOR) (Homo sapiens, UniProt P41145). Description: NIMH PDSP radioligand competition binding, KOR. (In general: Loss of bound radioactivity is the signal in a displacement assay; it reports binding, not function.)
Test [4] deals with T2, α2A (Homo sapiens, UniProt P08913).
T2 sequence (P08913 1-465): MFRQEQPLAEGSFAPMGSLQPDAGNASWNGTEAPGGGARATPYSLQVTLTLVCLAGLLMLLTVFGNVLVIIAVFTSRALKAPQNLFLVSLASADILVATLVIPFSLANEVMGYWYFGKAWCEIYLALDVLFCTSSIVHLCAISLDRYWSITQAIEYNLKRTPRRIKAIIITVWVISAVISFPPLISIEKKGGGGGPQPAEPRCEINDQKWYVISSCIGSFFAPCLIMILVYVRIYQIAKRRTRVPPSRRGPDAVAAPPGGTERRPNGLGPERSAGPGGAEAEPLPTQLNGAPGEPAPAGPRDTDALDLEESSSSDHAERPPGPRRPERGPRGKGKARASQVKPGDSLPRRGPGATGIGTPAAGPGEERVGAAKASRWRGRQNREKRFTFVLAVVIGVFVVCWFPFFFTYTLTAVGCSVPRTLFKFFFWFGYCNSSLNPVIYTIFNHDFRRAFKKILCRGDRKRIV
Description: NIMH PDSP radioligand competition binding, α2A.

In test [5] the target is 5-HT7 (Homo sapiens, UniProt P34969). As to the kind of experiment: NIMH PDSP radioligand competition binding, 5-HT7.
Test [6] has as its target T3, σ2 (Rattus norvegicus, UniProt Q5U3Y7).
T3 sequence (Q5U3Y7 1-176): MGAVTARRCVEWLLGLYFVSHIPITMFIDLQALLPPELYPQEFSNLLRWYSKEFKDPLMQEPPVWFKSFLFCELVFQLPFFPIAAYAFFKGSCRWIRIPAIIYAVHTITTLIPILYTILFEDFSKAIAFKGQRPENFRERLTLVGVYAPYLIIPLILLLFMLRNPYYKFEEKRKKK
As to the kind of experiment: NIMH PDSP radioligand competition binding, σ2.

The target of test [7] is serotonin transporter (SERT) (Homo sapiens, UniProt P31645). As to the kind of experiment: NIMH PDSP radioligand competition binding, SERT.
Test [8] concerns the target σ1 (Rattus norvegicus, UniProt Q9R0C9). Description: NIMH PDSP radioligand competition binding, σ1.
Test [9] concerns the target T4, α1D (Homo sapiens, UniProt P25100).
T4 sequence (P25100 1-572): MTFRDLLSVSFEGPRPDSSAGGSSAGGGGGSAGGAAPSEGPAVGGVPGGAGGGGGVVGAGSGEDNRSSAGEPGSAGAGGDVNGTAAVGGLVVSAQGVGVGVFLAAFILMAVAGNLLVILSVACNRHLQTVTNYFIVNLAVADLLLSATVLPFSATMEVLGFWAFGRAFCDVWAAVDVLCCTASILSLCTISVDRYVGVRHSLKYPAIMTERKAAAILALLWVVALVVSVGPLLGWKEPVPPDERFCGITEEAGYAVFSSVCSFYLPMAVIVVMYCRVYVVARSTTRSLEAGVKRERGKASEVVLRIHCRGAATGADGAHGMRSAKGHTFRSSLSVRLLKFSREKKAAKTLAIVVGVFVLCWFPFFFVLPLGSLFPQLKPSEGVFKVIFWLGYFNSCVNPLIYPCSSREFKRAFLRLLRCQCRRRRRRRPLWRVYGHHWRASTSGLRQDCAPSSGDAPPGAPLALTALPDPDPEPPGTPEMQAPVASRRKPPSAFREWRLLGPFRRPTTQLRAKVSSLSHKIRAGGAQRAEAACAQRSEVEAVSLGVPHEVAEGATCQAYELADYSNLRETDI
As to the kind of experiment: NIMH PDSP radioligand competition binding, α1D.

The target of test [10] is D5 (Homo sapiens, UniProt P21918). As to the kind of experiment: NIMH PDSP radioligand competition binding, D5. The conditions noted are these: Binding Affinity (Ki, nM), [3H]SCH23390, cloned human receptor.
The target in test [11] is T5, α1B (Homo sapiens, UniProt P35368).
T5 sequence (P35368 1-520): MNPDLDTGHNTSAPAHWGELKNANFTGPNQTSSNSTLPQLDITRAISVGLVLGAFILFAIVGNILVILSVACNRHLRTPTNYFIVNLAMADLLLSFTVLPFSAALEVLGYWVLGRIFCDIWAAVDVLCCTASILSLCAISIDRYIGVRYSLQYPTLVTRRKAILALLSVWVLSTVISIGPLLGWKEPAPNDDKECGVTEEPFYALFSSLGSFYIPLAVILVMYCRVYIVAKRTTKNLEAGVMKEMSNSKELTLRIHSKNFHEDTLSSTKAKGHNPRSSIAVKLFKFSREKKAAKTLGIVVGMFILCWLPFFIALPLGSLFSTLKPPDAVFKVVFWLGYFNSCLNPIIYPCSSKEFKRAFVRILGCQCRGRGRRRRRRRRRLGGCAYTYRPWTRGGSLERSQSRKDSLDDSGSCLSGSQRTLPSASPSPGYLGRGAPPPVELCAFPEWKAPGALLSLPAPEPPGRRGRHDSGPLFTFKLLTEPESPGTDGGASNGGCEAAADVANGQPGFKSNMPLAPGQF
As to the kind of experiment: NIMH PDSP radioligand competition binding, α1B.

The target in test [12] is 5-HT1B (Homo sapiens, UniProt P28222). Description: NIMH PDSP radioligand competition binding, 5-HT1B.
Test [13] has as its target μ-opioid receptor (MOR) (Homo sapiens, UniProt P35372). As to the kind of experiment: NIMH PDSP radioligand competition binding, MOR.
For test [14], the system named is head twitch response (5-HT2A receptor-mediated). Description: Head twitch response. It is filed as in vivo, C57BL/6J mice. The conditions noted are these: for HTR Counts (mean ± SEM): duration 30 min; for activity in the HTR assay (in words): C57BL/6J mice, IP, within the dose range tested; for ED50: Mus musculus, ip.

Like-named read-outs stand apart in the source and are kept apart here.

Broadly, the Ki is the dissociation constant of the complex between target and ligand, obtained from inhibition or displacement. With `C=CCN(CC=C)CCc1c(C)[nH]c2ccc(OC)cc12` [5-MeO-2-Me-DALT, 5-methoxy-2-methyl-N,N-diallyltryptamine], the Ki is > 10 µM in [1]; 1.13 µM in [2]; 0.391 µM in [3]; 0.189 µM in test [4]; > 10 µM in [5]; 1.24 µM in test [6]. In addition, the Ki in test [7] was > 10 µM; in test [8], 0.427 µM; in test [9] it was 2.41 µM; in test [10], > 10000 nM; in test [11] it was > 10 µM; in test [12], 2.27 µM. Further, the Ki in [13] is > 10 µM. Moreover, in [7] (SERT, [3H]citalopram, at 10,000 nM), the “displacement at 10,000 nM” value is < 50%. Moreover, the “HTR Counts (mean ± SEM)” value in [14] (0.875 mg/kg IP) was determined as 4.4 ± 0.2; in test [14] (1.75 mg/kg IP) it was 7.4 ± 2.2; in test [14] (3.5 mg/kg IP), 4.2 ± 1.0; in test [14] (7 mg/kg IP) it was 4.2 ± 0.9; in test [14] (14 mg/kg IP), 5.0 ± 1.4. Besides, the “activity in the HTR assay (in words)” value in test [14] (listed as 5-methoxy-2-methyl-DALT) is “did not induce the HTR”.

As to `C=CCN(CC=C)CCc1c[nH]c2c(CC)cccc12` [7-Et-DALT, 7-ethyl-N,N-diallyltryptamine], the Ki is 0.443 µM in test [1]; > 10 µM in [2]; 0.58 µM in test [3]; 0.141 µM in [4]; > 10 µM in test [5]; 0.136 µM in test [6]. For the same compound, the Ki is 0.795 µM in test [7]; 0.022 µM in test [8]; > 10 µM in [9]; > 10000 nM in test [10]; > 10 µM in [11]; > 10 µM in test [12]. In addition, the Ki in test [13] turned out to be 2.67 µM. Also, the “σ1 affinity, fold higher than the parent compound” value in [8] (relative to DALT) is reported as ~5 fold. For the same compound, in [14] (15 mg/kg IP), the “HTR Counts (mean ± SEM)” value is 9.8 ± 1.8. The “activity in the HTR assay (in words)” value in test [14] is “did not induce the HTR”.

Turning to `C=CCN(CC=C)CCc1c[nH]c2cccc(OC(C)=O)c12` [4-AcO-DALT, 4-acetoxy-N,N-diallyltryptamine], the Ki was 1.52 µM in test [1]; > 10 µM in test [2]; 5.23 µM in test [3]; 0.342 µM in test [4]; 0.724 µM in [5]; > 10 µM in test [6]. In addition, the Ki in test [7] was 1.09 µM; in test [8], 0.299 µM; in [9], > 10 µM; in test [10], > 10000 nM; in [11] it was > 10 µM; in test [12], > 10 µM. Besides, in [13], the Ki is > 10 µM. Also, the “HTR Counts (mean ± SEM)” value stood at 10.4 ± 1.4 in test [14] (0.875 mg/kg IP); 42.0 ± 9.5 in test [14] (1.75 mg/kg IP); 39.0 ± 14.1 in test [14] (3.5 mg/kg IP); 65.0 ± 8.4 in test [14] (7 mg/kg IP); 47.8 ± 10.0 in test [14] (14 mg/kg IP). Moreover, the “activity in the HTR assay (in words)” value in test [14] was “active”. Further, the ED50 in [14] (read-out: ED50 (95% CI) (mg/kg)) came to 1.99 mg/kg; in test [14] (read-out: ED50 (95% CI) (μmol/kg)) it was 4.8 µmol/kg.

On to `C=CCN(CC=C)CCc1c(C)[nH]c2ccc(F)cc12` [5-F-2-Me-DALT, 5-fluoro-2-methyl-N,N-diallyltryptamine], for which the Ki in test [1] was determined as 0.541 µM; in [2], 1.4 µM; in test [3] it was 0.58 µM; in test [4], 0.053 µM; in [5], 0.493 µM; in [6], 0.396 µM. The Ki in [7] is 0.983 µM; in test [8] it was 0.531 µM; in [9], > 10 µM; in test [10], > 10000 nM; in test [11], > 10 µM; in [12], 2.01 µM. Moreover, the Ki in test [13] was > 10 µM. The “SERT affinity, fold reduction by 2-methylation” value in test [7] is reported as ~30 fold. The “HTR Counts (mean ± SEM)” value in test [14] (0.875 mg/kg IP) was found to be 6.2 ± 1.0; in test [14] (1.75 mg/kg IP), 6.8 ± 0.9; in test [14] (3.5 mg/kg IP), 5.8 ± 2.5; in test [14] (7 mg/kg IP) it was 6.4 ± 1.6; in test [14] (14 mg/kg IP), 7.2 ± 0.8. In addition, the “activity in the HTR assay (in words)” value in test [14] (listed as 5-fluoro-2-methyl-DALT) is “did not induce the HTR”.
